Measurements reported in US8143025B2, “Antibodies against vascular endothelial growth factor receptor-1” (ImClone LLC, priority 2004, dated 2012).
Entries after “also recorded” stand apart in the source; their conditions may differ.

Key:
[1] = test system: ERK1/2 downstream signaling; experiment: ERK1/2 activation Western blot, PAE-VEGFR-I cells; assay type: cell-based; conditions: PAE-VEGFR-I transfectant cells, FIGS. 12-14
Description: (§1) Autophosphorylation of the VEGFR-I induced by its ligands and resulting activation of a classical MAPK, extracellular signal-regulated protein kinases 1Z2 (ERK1Z2) and the PBK/Atk downstrean signaling pathways mediate cellular biological responses such as proliferation, motility, survival, and differentiation. The ability of an anti-VEGFR-1 antibody to inhibit phosphorylation of VEGFR-I and activation of ERK1 Z2 and the Akt kinases downstream signaling were determined by using the PAE-VEGFR-I transfectant and BT474 breast carcinoma cells.
PAE-VEGFR-I and BT474 cells were seeded at a density of 5×10^5Zwell in […] plates and cultured in serum-free medium for 18-48 hours. After replacing the culture medium, the cells were treated at 37° C. with anti-VEGFR-I antibody clones 6F9, 15F1 1, and 18F1 or isotype control for 1 hour and then incubated with 50 ng/ml of VEGF or 100 ng/ml of PlGF for 10 minutes. […] Western blot of phosphorylated VEGFR-I was detected using […] antibody (PY-20, Santa Cruz Biotechnology, Santa Cruz, Calif.). Proteins were detected using and […] chemiluminescence system (ECL)(Amersham Pharmacia Biotech, Piscataway, N.J.), and quantified by densitometry using NIH Image (National Institute of Mental Health, Bethesda, Md.). […]

Akt = Akt phosphorylation Western blot, BT474 cells; assay type: cell-based, human; conditions: BT474 breast cancer cells, FIG. 15
Description: as §1
For evaluation of MAPK and Akt phosphorylation, BT474 cells were seeded at a density of 5×10^5/well in 12 well plates in serum-free conditions for 18 hours. Cells were treated at 37° C. with anti-VEGFR-1 antibody clone 18F1 or isotype control for 1 hour and then incubated with 50 ng/ml of VEGF or 100 ng/ml of PlGF for 5-10 minutes. Cell lysis, protein isolation and electroblotting were performed. Membranes were incubated with antibodies against phosphorylated p44/p42 MAP kinases (Thr202/Tyr204, Santa Cruz Biotechnology, Santa Cruz, Calif.) or phosphorylated Akt (Ser473, Cell Signaling Technology, Beverly, Mass.), at a concentration of 1 μg/ml, followed by incubation with a secondary IgG-HRP (1:5000). […]

DU4475 carcinoma cells = experiment: Cell growth assay (Example 5); assay type: cell-based, human; conditions: 3, 10, 30 μg/ml antibody, 50 ng/ml VEGF or 200 ng/ml PlGF, 48 hours
Description: DU4475 carcinoma cells were seeded at a density of 5×10^3/well into 96-well plates in serum-free conditions for 18 hours, and in some case followed by treatment with 100 nM of desferoxamine for additional 5 hours. Inhibitory effect of anti-VEGFR-I antibody on tumor cell growth was determined by incubation of cells with anti-VEGFR-I antibody clones 6F9, 13G12, 15F1 1, and 18F1 at doses of 3, 10, and 30 μg/ml in the presence of 50 ng/ml of VEGF or 200 ng/ml of PlGF for 48 hours. Viable cells were then counted in triplicate using a Coulter cytometer (Coulter Electronics Ltd. Luton, Beds, England). Each experiment was done in triplicate.

HT-29 cells = experiment: Migration through membrane insert; assay type: cell-based, human; conditions: 66 nM antibody, 10 ng/mL VEGF-A or 50 ng/mL VEGF-B, 48 hours, p<0.05, FIG. 23
Description: HT-29 cells (2.5×1 10^4) or SW480 cells (1.5×1 10^4) were incubated in medium containing 1% FBS with the anti-VEGFR-1 antibody 18F1 (66 nM) in the upper surface of a 24 well MATRIGEL™ coated (HT-29) or uncoated (SW480) 8.0-μm pore size membrane insert (Becton Dickinson Labware, Bedford, Mass.). The inserts were placed into lower chambers containing 10 ng/mL VEGF-A (R&D Systems) or 50 ng/mL VEGF-B (R&D Systems) for 48 hours. Cells remaining in the top chamber of the inserts were removed with a cotton swab. Cells migrating to the underside of the inserts were stained with Diff-Quik (Harleco, Gibbstown, N.J.) and counted in ten random fields at 100× magnification. Statistical analysis was performed using InStat Statistical Software (V2.03, GraphPad Software, San Diego, Calif.).

VEGFR-I = VEGFR-I (Homo sapiens, UniProt P17948); experiment: VEGFR-I phosphorylation assay, PAE-VEGFR-I cells; assay type: cell-based; parameters: host or cells: porcine aorta endothelial (PAE) cells; conditions: PAE-VEGFR-I transfectant, compared to untreated control, FIG. 10
Sequence of VEGFR-I (P17948 27-1338): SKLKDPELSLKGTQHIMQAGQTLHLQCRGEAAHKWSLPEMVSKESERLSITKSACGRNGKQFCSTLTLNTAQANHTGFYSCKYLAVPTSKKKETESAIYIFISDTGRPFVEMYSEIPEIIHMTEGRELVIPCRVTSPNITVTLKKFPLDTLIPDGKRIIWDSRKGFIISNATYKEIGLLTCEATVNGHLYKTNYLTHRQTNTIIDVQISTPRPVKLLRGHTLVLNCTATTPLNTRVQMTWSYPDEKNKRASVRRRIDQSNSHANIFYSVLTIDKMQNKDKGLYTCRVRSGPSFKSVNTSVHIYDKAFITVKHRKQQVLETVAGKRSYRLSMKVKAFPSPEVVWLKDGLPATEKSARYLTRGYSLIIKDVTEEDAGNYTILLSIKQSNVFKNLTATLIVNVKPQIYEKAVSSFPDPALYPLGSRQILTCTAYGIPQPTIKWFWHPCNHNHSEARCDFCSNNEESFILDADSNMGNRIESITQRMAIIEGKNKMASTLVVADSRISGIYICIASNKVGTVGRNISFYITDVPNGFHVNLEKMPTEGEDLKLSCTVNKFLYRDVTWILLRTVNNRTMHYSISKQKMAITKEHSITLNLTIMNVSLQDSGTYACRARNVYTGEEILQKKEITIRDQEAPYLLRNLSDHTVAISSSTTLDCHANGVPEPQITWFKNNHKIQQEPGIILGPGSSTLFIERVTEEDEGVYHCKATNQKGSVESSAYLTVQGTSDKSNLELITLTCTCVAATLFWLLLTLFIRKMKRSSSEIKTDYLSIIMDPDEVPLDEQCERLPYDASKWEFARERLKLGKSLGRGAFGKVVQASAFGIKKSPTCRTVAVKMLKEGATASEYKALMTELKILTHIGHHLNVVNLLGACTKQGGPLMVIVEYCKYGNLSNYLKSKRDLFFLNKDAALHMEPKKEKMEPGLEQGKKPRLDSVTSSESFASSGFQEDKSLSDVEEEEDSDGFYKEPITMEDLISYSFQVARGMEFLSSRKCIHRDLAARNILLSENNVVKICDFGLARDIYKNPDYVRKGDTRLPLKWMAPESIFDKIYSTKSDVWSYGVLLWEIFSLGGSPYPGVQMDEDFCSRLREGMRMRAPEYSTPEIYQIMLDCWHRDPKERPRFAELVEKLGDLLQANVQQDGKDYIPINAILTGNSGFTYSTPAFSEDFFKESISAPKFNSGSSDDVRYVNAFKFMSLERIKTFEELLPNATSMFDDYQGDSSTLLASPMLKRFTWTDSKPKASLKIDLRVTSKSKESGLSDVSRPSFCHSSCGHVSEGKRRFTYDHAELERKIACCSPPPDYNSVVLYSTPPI
Description: Confluent porcine aorta endothelial VEGFR-I expressing (PAE-VEGFR-I) cells and BT474 human breast carcinoma cells were cultured in serum-depleted F12 medium for 48 hours. The cells were then preincubated with anti-VEGFR-I antibody clone 18F1 at concentrations ranging from 0.1 to 30 μg/ml for 1 hour followed by stimulating with VEGF or PlGF for 5 minutes at 37° C. The cells were then rinsed with ice-cold PBS and lysed in lysis buffer (50 mM HEPES, 150 mM NaCl, 1% Triton X-100, and 10% glycerol containing 1 mM phenylmethylsulfonyl fluoride, 10 μg/ml aprotinin, 10 μg/ml leupeptin, and 1 mM sodium vanadate). Cell lysates were subjected to SDS-PAGE and transferred onto Immobilon membranes (Millipore Corp. Billerica, Mass.). […]
as §1, with “cells. […]” for “cells.”

Substance: 18F1: human anti-VEGFR-1 monoclonal antibody clone; VL SEQ ID NO: 16, VH SEQ ID NO: 20 [Clone 18F1]
- PlGF and VEGF induced activation of ERK1/2 downstream signaling [1]: dramatically inhibited; also recorded: inhibition
- PlGF or VEGF-stimulated phosphorylation of Akt (Akt): significantly blocked
- VEGF and PlGF stimulated proliferation of DU4475 breast carcinoma cells (DU4475 carcinoma cells): inhibition
- VEGFR-I ligand induced migration (HT-29 cells): completely blocked
- PlGF-stimulated phosphorylation of VEGFR-I (VEGFR-I): significantly reduced; also recorded: reduction
